Laboratory results taken from ChEMBL document CHEMBL3045569, “Synthesis of allyl esters of fatty acids and their ovicidal effect on Cydia pomonella (L.)” (2009).
Values after ≈ are worked out from the molar mass of the structure shown. Active and inactive are the calls of the source. The calls are words filed in the database; no cut-off is given here.

What was measured:
[1] = test system: Cydia pomonella; assay: Ovicidal activity against <24 hr-old Cydia pomonella (codling moth) eggs assessed as mortality at the stage of red ring development at 10 mg/ml applied as 0.1 ul drop solution topically measured for 3 days (acetone Rvb = 4.4 +/-0.22%); assay type: functional; conditions: topical, 72 h
[2] = test system: Cydia pomonella; assay: Ovicidal activity against <24 hr-old Cydia pomonella (codling moth) eggs assessed as mortality at the stage of white head development at 10 mg/ml applied as 0.1 ul drop solution topically measured for 3 days (acetone Rvb = 1.1 +/-0.44%); assay type: functional; conditions: topical, 72 h
[3] = test system: Cydia pomonella; assay: Ovicidal activity against <24 hr-old Cydia pomonella (codling moth) eggs assessed as corrected mortality at 7.5 mg/ml applied as 0.1 ul drop solution topically measured for 3 days; assay type: functional; conditions: topical, 72 h
[4] = test system: Cydia pomonella; assay: Ovicidal activity against <24 hr-old Cydia pomonella (codling moth) eggs assessed as increase in duration of the development of eggs applied as 0.1 ul drop solution topically measured for 3 days; assay type: functional, organism-based
[5] = test system: Cydia pomonella; assay: Ovicidal activity against <24 hr-old Cydia pomonella (codling moth) eggs assessed as corrected mortality at 0.5 mg/ml applied as 0.1 ul drop solution topically measured for 3 days; assay type: functional; conditions: topical, 72 h
[6] = test system: Cydia pomonella; assay: Ovicidal activity against <24 hr-old Cydia pomonella (codling moth) eggs assessed as corrected mortality at 10 mg/ml applied as 0.1 ul drop solution topically measured for 3 days; assay type: functional; conditions: topical, 72 h
[7] = test system: Cydia pomonella; assay: Ovicidal activity against <24 hr-old Cydia pomonella (codling moth) eggs assessed as mortality applied as 0.1 ul drop solution topically measured for 3 days; assay type: functional; conditions: for LC50: Cydia pomonella, topical, 72 h
[8] = test system: Cydia pomonella; assay: Ovicidal activity against <24 hr-old Cydia pomonella (codling moth) eggs assessed as corrected mortality at 2.5 mg/ml applied as 0.1 ul drop solution topically measured for 3 days; assay type: functional; conditions: topical, 72 h
[9] = test system: Cydia pomonella; assay: Ovicidal activity against <24 hr-old Cydia pomonella (codling moth) eggs assessed as corrected mortality at 1 mg/ml applied as 0.1 ul drop solution topically measured for 3 days; assay type: functional; conditions: topical, 72 h
[10] = test system: Cydia pomonella; assay: Ovicidal activity against <24 hr-old Cydia pomonella (codling moth) eggs assessed as corrected mortality at 0.1 mg/ml applied as 0.1 ul drop solution topically measured for 3 days; assay type: functional; conditions: topical, 72 h
[11] = test system: Cydia pomonella; assay: Ovicidal activity against <24 hr-old Cydia pomonella (codling moth) eggs assessed as corrected mortality at 1.75 mg/ml applied as 0.1 ul drop solution topically measured for 3 days; assay type: functional; conditions: topical, 72 h
[12] = test system: Cydia pomonella; assay: Ovicidal activity against <24 hr-old Cydia pomonella (codling moth) eggs assessed as corrected mortality at 5 mg/ml applied as 0.1 ul drop solution topically measured for 3 days; assay type: functional; conditions: topical, 72 h
[13] = test system: Cydia pomonella; assay: Ovicidal activity against <24 hr-old Cydia pomonella (codling moth) eggs assessed as mortality at the stage of black head development at 10 mg/ml applied as 0.1 ul drop solution topically measured for 3 days (acetone Rvb = 94.4 +/-0.1%); assay type: functional; conditions: topical, 72 h

SMILES	mortality at 10000 µg/mL [1]	mortality at 10000 µg/mL [2]	mortality at 7500 µg/mL [3]	Activity [4]	mortality at 500 µg/mL [5]	mortality at 10000 µg/mL [6]	LC90 [7]	LC50 [7]	mortality at 2500 µg/mL [8]	mortality at 1000 µg/mL [9]	mortality at 100 µg/mL [10]	mortality at 1750 µg/mL [11]	mortality at 5000 µg/mL [12]	mortality at 10000 µg/mL [13]
C=CCOC(=O)CCCCCCCCCCC [ALLYL DODECANOATE]	12.2%	68.9%	98.8%	Active	10%	100%	2340 µg/mL (≈ 9.73 mM)	1140 µg/mL (≈ 4.74 mM)	95.9%	36.4%	0%	71.7%	96.5%	18.9%
C=CCOC(=O)CCCCCCCCCCCCCCC [HEXADECANOIC ACID ALLYL ESTER]	24.4%	28.9%	87.2%	Active	0%	100%	7970 µg/mL (≈ 26.9 mM)	2460 µg/mL (≈ 8.3 mM)	66.6%	6%	0%	32.6%	72.2%	46.7%
C=CCOC(=O)CCC [ALLYL BUTANOATE]	14.4%	75.6%	100%	Active	20.5%	100%	3200 µg/mL (≈ 25 mM)	1060 µg/mL (≈ 8.27 mM)	83.3%	42.7%	6%	72%	98.7%	10%
C=CCOC(=O)CCCCCCC [ALLYL OCTANOATE]	13.3%	80%	98.8%	Active	29.9%	100%	2180 µg/mL (≈ 11.8 mM)	710 µg/mL (≈ 3.85 mM)	95.9%	59.2%	9.7%	83.8%	97.7%	6.7%
C=CCOC(=O)CCCCCCCCC [ALLYL DECANOATE]	16.7%	68.9%	100%	Active	12.4%	100%	2260 µg/mL (≈ 10.6 mM)	1400 µg/mL (≈ 6.59 mM)	97.2%	30.5%	7.4%	76.3%	98.7%	14.4%
C=CCOC(=O)CCCCCCCCCCCCCCCCC [ALLYL OCTADECANOATE]	13.3%	43.3%	87.2%	Active	11.9%	100%	7330 µg/mL (≈ 22.6 mM)	2690 µg/mL (≈ 8.29 mM)	41.6%	17.3%	0%	32.1%	82.2%	43.3%
C=CCOC(=O)CCCCCCCCCCCCC [ALLYL TETRADECANOATE]	17.8%	54.4%	97.7%	Active	7.5%	100%	3240 µg/mL (≈ 12.1 mM)	1410 µg/mL (≈ 5.25 mM)	87.5%	19.8%	4.6%	49.5%	97.2%	27.8%
CCOC(=O)NCCOc1ccc(Oc2ccccc2)cc1 [PHENOXYCARB]	–	–	–	–	100%	–	–	–	–	–	–	–	–	–
C=CCOC(=O)CCCCC [ALLYL HEXANOATE]	13.3%	67.8%	100%	Active	22.4%	100%	2130 µg/mL (≈ 13.6 mM)	–	95.8%	51.2%	8.4%	83.8%	98.7%	18.9%
